As a reminder, the IC50 is the concentration needed to halve the response being measured. As usually defined, the % inhibition is the share of the control response that was lost under treatment.

Read-outs that look alike come from different tables or passages of the source. A value given as a limit tells only on which side of the number the result lay.

Experiment [1] has as its system BJAB. Description: Cell proliferation, Cell-Titre Glo, 72 hours: BJAB. The format is cell-based. Conditions: Homo sapiens, mean ± std. dev. Here is the method: (§1) NHLF, BJAB, SU-DHL-2, and HCT-116 cells were treated with Compound A197 for 4 hours prior to lysate harvest. Total cellular glutathione (GSH) levels were determined using a luminescent endpoint (GSH-Glo, Promega). Cell proliferation was determined using Cell-Titre Glo following 72 hours of compound treatment. All data shown is mean±SD of three biological replicates.

The next experiment has as its system SU-DHL-2. Description: Total cellular GSH levels (GSH-Glo): SU-DHL-2. The format is cell-based, human. Conditions: 4 hrs, mean ± std. dev. The method, then:
as §1

A further experiment has as its system NCI-H460. Nature of the experiment: Anti-proliferative activity, CellTiter-Glo, 72 hours: NCI-H460. The experiment is classed as cell-based, human. Conditions: Homo sapiens, NCI-H460 (non-small cell lung cancer), Cell-Titre-Glo. The method, then:
(§2) Anti-proliferative activity of BTM compounds. The anti-proliferative activities of Compound A197 and Compound B19 were compared to 4EGI-1 (a known cancer cell growth inhibitor) in a panel of 99 tumor lines. Methods: A panel of 96 tumor and 3 normal cell lines were tested for sensitivity to the test compound. The cell lines were cultured in standard media and pipetted into 96-well plates at the required plating densities. The cells were acclimated for 24 hours prior to compound testing. Compound was prepared as a stock of 20 mM in DMSO. To prepare dose response curves compound was serially diluted in DMSO and dispensed into the plate wells using a Tecan D300e digital dispenser. The final DMSO concentration was 0.15%. After 72 hours of incubation cell number was determined using the CellTiter-Glo® protocol according to the manufacturers instructions (Promega). In this assay, ATP is measured as a surrogate of cell number. The activity of the compound is determined by comparing untreated cells with treated cells and calculating the % of signal retained. Compound activity is measured as an EC50 of maximum level of efficacy and the two are used to compute an activity area. The table below provides a comparison of activity in a data sample.
Background: Cellular ATP, detected with luciferase, serves as a proxy for viable cell number.

A further experiment deals with KU812. Description: Cell viability, CellTiter-Glo, 96 h: KU812. The format is cell-based. Conditions: for IC50: read-out: Absolute IC50. Here is the method:
(§3) Viability was determined by using the 50% inhibitory concentration (IC50) as determined with the CellTiter-Glo® Viability Assay (Promega). All cells were cultured under standard conditions in media supplemented with 10-15% Fetal Bovine Serum, at a temperature of 37° C., 5% CO2 and 95% humidity.
(§4) Cells were harvested during the logarithmic growth period, counted, and the cell concentration adjusted to 4.44×10^4 cells/mL using culture medium. A final cell density of 4×10^3 cells/well was added in a 90 μL cell suspension to plates A and B as shown.
(§5) Test plate B was incubated for 96 h in the humidified incubator at 37° C. with 5% CO2.
(§6) Following the incubation, the plate was equilibrated at room temperature for thirty minutes. CellTiter-Glo® (50 μL) was added to each well of the plate and contents mixed for five minutes on an orbital shaker to induce cell lysis. The luminescent signal was allowed to stabilize at room temperature for 20 minutes and the luminescence recorded.
(§7) IC50 (EC50) was calculated using a dose-response curve, fitted using a nonlinear regression model with a sigmoidal dose response. Survival rate was calculated using the formula:
(§8) The Surviving rate (%)=(LumTest article−LumMedium control)/(LumNon-treated−LumMedium control)×100%.
(§9) Absolute IC50 (EC50) was calculated according to the dose-response curve generated by the statistical software (GraphPad Prism 5.0).

Experiment [2] deals with HCT-116. Description: Total cellular GSH levels (GSH-Glo): HCT-116. The format is cell-based, human. Conditions: 4 hrs, mean ± std. dev. The method, then:
as §1

Another experiment has as its system NHLF. Nature of the experiment: Total cellular GSH levels (GSH-Glo): NHLF. The experiment is classed as cell-based, human. Conditions: 4 hrs. Here is the method:
as §1

For another experiment, the system named is NCI-H2122. Description: Anti-proliferative activity, CellTiter-Glo, 72 hours: NCI-H2122. The experiment is classed as cell-based, human. Conditions: Homo sapiens, NCI-H2122 (non-small cell lung cancer), Cell-Titre-Glo. Here is the method: as §2
A further experiment concerns HT-1080. Description: Anti-proliferative activity, CellTiter-Glo, 72 hours: HT-1080. The experiment is classed as cell-based, human. Conditions: Homo sapiens, HT-1080 (fibrosarcoma), Cell-Titre-Glo. Here is the method:
as §2

The next experiment has as its system JHH-6. Description: Cell viability, CellTiter-Glo, 96 h: JHH-6. Conditions: for IC50: read-out: Absolute IC50. The experiment is classed as cell-based. The method, then:
as §3, §4, §5, §6, §7, §8, §9

In experiment [3] the test system is BJAB. Nature of the experiment: Apoptosis, 72 hr: BJAB. The format is cell-based, human.
A further experiment relates to SU-DHL-4. Nature of the experiment: Anti-proliferative activity, CellTiter-Glo, 72 hours: SU-DHL-4. The experiment is classed as cell-based, human. Conditions: Homo sapiens, SU-DHL-4 (B-cell lymphoma), Cell-Titre-Glo. Here is the method:
as §2

A further experiment concerns Cytoskeletal. Nature of the experiment: High content imaging screen: cytoskeletal. Conditions: actin or microtubule localization or structure. The experiment is classed as cell-based. Here is the method: Mechanism of Action Screens A series of broad high content imaging, transcriptomic, metabolomic, and CRISPR KO screens were performed to link Compound A197 activity to a probable method of action. The outcome of these screens included two notable observations.

Experiment [4] has as its system HCT-116. Description: Anti-proliferative activity, CellTiter-Glo, 72 hours: HCT-116. The experiment is classed as cell-based, human. Conditions: Homo sapiens, HCT-116 (colorectal cancer), Cell-Titre-Glo. The method, then:
as §2

A further experiment has as its system eIF2α phosphorylation. Nature of the experiment: eIF2α phosphorylation in HCT-116 cells, Western blotting. The experiment is classed as cell-based, human. Conditions: 5 μM, 30 minutes, 1, 2 or 4 hrs. Here is the method: FIG. 12 is a set of graphs of Compound A197-induced phosphorylation of eIF2a. HCT-116 cells were treated with 5 μM Compound A197. eIF2α and p-eIF2α levels were determined by Western blotting. All data are mean±SD (n=3). *=p<0.05; #p<0.005.
The canonical pathway of ATF4 induction involves eIF2α phosphorylation. To determine the levels of levels of eIF2α and p-eIF2α were determined using Western blotting. HCT-116 cells (1.5×10^5 per well) were cultured in 12 well tissue culture plates and treated with 5 μM Compound A197 dissolved in McCoys complete medium with 10% FBS for 30 minutes, 1,2 or 4 hrs. Following treatment, media was removed, the cells were washed with PBS and then lysed following addition of RIPA lysis buffer. The cell lysate is then clarified by centrifugation at 14,000×g for 10 minutes. The clarified lysate protein levels are determined using BCA methodology. All lysates are diluted with RIPA buffer to give a final concentration of 200 μg/ml. As a control, HCT-116 cells were starved for essential amino acids (EAA), which increases eIF2α phosphorylation via EIF2AAK4 (GCN2). The HCT-116 cells were plated as above but the media was removed and replaced with Earls Balanced salt solution. All subsequent steps for lysate preparation were identical to those described above.

The subject of the next experiment is MDA-MB-157. Nature of the experiment: Anti-proliferative activity, CellTiter-Glo, 72 hours: MDA-MB-157. The experiment is classed as cell-based, human. Conditions: Homo sapiens, MDA-MB-157, 72 h. Here is the method: as §2
For another experiment, the system named is HUH-6 CLONE5. Description: Cell viability, CellTiter-Glo, 96 h: HUH-6 CLONE5. The experiment is classed as cell-based. Conditions: for IC50: read-out: Absolute IC50. The method, then:
as §3, §4, §5, §6, §7, §8, §9

Setting [5] is: Homo sapiens, read-out: GSH IC50 (Abs).

In the case of `Cc1nn(-c2nc(-c3ccc(C(F)(F)F)cc3)c(SC(C)C)s2)c(C(=O)O)c1-c1cccc(F)c1` [Compound A197, 4-(3-fluorophenyl)-1-(5-(isopropylthio)-4-(4-(trifluoromethyl)phenyl)thiazol-2-yl)-3-methyl-1H-pyrazole-5-carboxylic acid], the IC50 is 295 ± 110 nM in the experiment with BJAB [1]; 120 ± 50 nM in the experiment with SU-DHL-2 (setting [5]); 156 nM in the experiment with NCI-H460; more than 30000 nM with KU812 (Homo sapiens); 360 ± 720 nM in the experiment on HCT-116 [2] (setting [5]); 200 nM with NCI-H2122. In addition, the IC50 was 725 nM in the experiment on HT-1080; more than 30 µM with JHH-6; 288 nM in the experiment on SU-DHL-4; 295 nM with HCT-116 [4]; more than 30 µM with MDA-MB-157; more than 30 µM in the experiment on HUH-6 CLONE5. In addition, the results for the “GSH % Max reduction” value in the experiment with SU-DHL-2, with HCT-116 [2] and with NHLF were 52 ± 4%, 43 ± 9% and 0%, respectively. Moreover, the results for the “% inhibition at top conc.” value with KU812, in the experiment with JHH-6 and in the experiment with HUH-6 CLONE5 were 27.53%, 45.19% and 11.18%, respectively. The “Apoptosis, 72 hr” value in the experiment on BJAB [3] was “Yes”. Besides, the “Outcome: Cytoskeletal” value in the experiment with Cytoskeletal is on record as “No obvious changes in actin or microtubule localization”. The eIF2α phosphorylation entry with eIF2α phosphorylation is “Increased eIF2α phosphorylation within 30 minutes”.

As for `COC(=O)c1c(-c2cccc(F)c2)c(C)nn1-c1nc(C2=CCC(C(F)(F)F)CC2)c(SC(C)C)s1` (single isomer, unassigned) [Compound B19, methyl 4-(3-fluorophenyl)-1-(5-(isopropylthio)-4-(4-(trifluoromethyl)cyclohex-1-en-1-yl)thiazol-2-yl)-3-methyl-1H-pyrazole-5-carboxylate], the IC50 in the experiment on NCI-H460 is 167 nM; with NCI-H2122, 184 nM; with HT-1080 it was 528 nM; in the experiment on SU-DHL-4 it was 360 nM; in the experiment on HCT-116 [4], 343 nM; in the experiment with MDA-MB-157, more than 30 µM.

Consider `N.N.[Cl][Pt][Cl]` [Cisplatin, reference compound], for which the “% inhibition at top conc.” value with KU812 is on record as 99.20%; with JHH-6, 95.32%; with HUH-6 CLONE5, 99.43%. The IC50 in the experiment on KU812 was determined as 1950 nM; in the experiment on JHH-6, 3.12 µM; with HUH-6 CLONE5, 6.33 µM.

The values are drawn from US20210278408A1, “METHODS OF TREATMENT OF CANCER WITH SUBSTITUTED PYRROLE AND PYRAZOLE COMPOUNDS AND DIAGNOSIS OF CANCERS SUSCEPTIBLE TO TREATMENT WITH SUBSTITUTED PYRROLE AND PYRAZOLE COMPOUNDS” (Bantam Pharmaceutical, LLC, priority 2018, published 2021).
